Columns and labels:
[1] = 101 kPa, Liquid; for viscosity: Capillary tube (Ostwald / Ubbelohde) method
[2] = refractive index (Na D-line) (dimensionless); details: 101.33 kPa, Liquid, Standard Abbe refractometry
[3] = xn = mol fraction of the nth substance listed; details: 101 kPa, Liquid; for viscosity: Capillary tube (Ostwald / Ubbelohde) method
[4] = refractive index (Na D-line) (dimensionless); xn = mol fraction of the nth substance listed; details: 101 kPa, Liquid, Standard Abbe refractometry

CCC(O)CC [3-pentanol]
Details | mass density, 298.15 K [kg/m3] | mass density, 308.15 K [kg/m3] | mass density, 318.15 K [kg/m3] | refractive index, 298.15 K | refractive index, 308.15 K | refractive index, 318.15 K | viscosity, 298.15 K [mPa·s] | viscosity, 308.15 K [mPa·s] | viscosity, 318.15 K [mPa·s]
[1] | 815.79 | 806.91 | 797.66 | – | – | – | 4.625 | 2.864 | 1.902
[2] | – | – | – | 1.4047 | 1.4029 | 1.3981 | – | – | –

CCC(C)=O [butanone]
Details | mass density, 298.15 K [kg/m3] | mass density, 308.15 K [kg/m3] | mass density, 318.15 K [kg/m3] | refractive index, 298.15 K | refractive index, 308.15 K | refractive index, 318.15 K | viscosity, 298.15 K [mPa·s] | viscosity, 308.15 K [mPa·s] | viscosity, 318.15 K [mPa·s]
[1] | 799.76 | 789.21 | 778.52 | – | – | – | 0.391 | 0.361 | 0.334
[2] | – | – | – | 1.375 | 1.37 | 1.3657 | – | – | –

CCC(C)=O [butanone] + CCC(O)CC
x1 = 1
Details | mass density, 298.15 K [kg/m3] | mass density, 308.15 K [kg/m3] | mass density, 318.15 K [kg/m3] | refractive index, 298.15 K | refractive index, 308.15 K | refractive index, 318.15 K | viscosity, 298.15 K [mPa·s] | viscosity, 308.15 K [mPa·s] | viscosity, 318.15 K [mPa·s]
[3] | 799.76 | 789.21 | 778.52 | – | – | – | 0.391 | 0.361 | 0.334
[4] | – | – | – | 1.375 | 1.37 | 1.3657 | – | – | –

CCC(C)=O [butanone] + CCCC(C)O
x1 = 1
Details | mass density, 298.15 K [kg/m3] | mass density, 308.15 K [kg/m3] | mass density, 318.15 K [kg/m3] | refractive index, 298.15 K | refractive index, 308.15 K | refractive index, 318.15 K | viscosity, 298.15 K [mPa·s] | viscosity, 308.15 K [mPa·s] | viscosity, 318.15 K [mPa·s]
[3] | 799.76 | 789.21 | 778.52 | – | – | – | 0.391 | 0.361 | 0.334
[4] | – | – | – | 1.375 | 1.37 | 1.3657 | – | – | –

CCCCCO [pentan-1-ol]
Details | mass density, 298.15 K [kg/m3] | mass density, 308.15 K [kg/m3] | mass density, 318.15 K [kg/m3] | refractive index, 298.15 K | refractive index, 308.15 K | refractive index, 318.15 K | viscosity, 298.15 K [mPa·s] | viscosity, 308.15 K [mPa·s] | viscosity, 318.15 K [mPa·s]
[1] | 810.85 | 803.45 | 795.9 | – | – | – | 3.54 | 2.658 | 2.288
[2] | – | – | – | 1.4068 | 1.4031 | 1.3996 | – | – | –

CCCCCO [pentan-1-ol] + CCC(C)=O
x2 = 0
Details | mass density, 298.15 K [kg/m3] | mass density, 308.15 K [kg/m3] | mass density, 318.15 K [kg/m3] | refractive index, 298.15 K | refractive index, 308.15 K | refractive index, 318.15 K | viscosity, 298.15 K [mPa·s] | viscosity, 308.15 K [mPa·s] | viscosity, 318.15 K [mPa·s]
[3] | 810.85 | 803.45 | 795.9 | – | – | – | 3.54 | 2.658 | 2.288
[4] | – | – | – | 1.4068 | 1.4031 | 1.3996 | – | – | –

CCCC(C)O (stereo not drawn) [pentan-2-ol]
Details | mass density, 298.15 K [kg/m3] | mass density, 308.15 K [kg/m3] | mass density, 318.15 K [kg/m3] | refractive index, 298.15 K | refractive index, 308.15 K | refractive index, 318.15 K | viscosity, 298.15 K [mPa·s] | viscosity, 308.15 K [mPa·s] | viscosity, 318.15 K [mPa·s]
[1] | 805.3 | 797 | 788.37 | – | – | – | 3.478 | 2.361 | 1.772
[2] | – | – | – | 1.4032 | 1.399 | 1.395 | – | – | –

From the NIST ThermoML archive (doi:10.1021/je901067c)
